From PubChem BioAssay AID2060604 (Molecular Pharmacology Branch, DTP, NCI, 2025)

Tested on: 379773-124-R-J2-PDC complex spheroids, viability % test/control
Experiment: Anticancer human tumor 379773-124-R-J2-PDC patient-derived endometrial carcinoma cell line growth inhibition [CLK]
Conditions: for IC50: curve of first compound; for viability, T/C: stronger effect = lower value
Outline: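 Multi-cell-type spheroids combined patient-derived tumor cells with HUVEC endothelial cells and human mesenchymal stem cells. Paired agents were dosed in half-log steps down from about clinical Cmax, or from 10 microM where Cmax was unknown.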

[1] = second compound 0.0316 µM, first compound 0.0316 µM
[2] = second compound 0.0316 µM, first compound 0.1 µM
[3] = second compound 0.0316 µM, first compound 0.316 µM
[4] = second compound 0.0316 µM, first compound 1 µM
[5] = second compound 0.0316 µM, first compound 3.16 µM
[6] = second compound 0.0316 µM, first compound 10 µM
[7] = second compound 0.1 µM, first compound 0.0316 µM
[8] = second compound 0.1 µM, first compound 0.1 µM
[9] = second compound 0.1 µM, first compound 0.316 µM
[10] = second compound 0.1 µM, first compound 1 µM
[11] = second compound 0.1 µM, first compound 3.16 µM
[12] = second compound 0.1 µM, first compound 10 µM
[13] = second compound 0.316 µM, first compound 0.0316 µM
[14] = second compound 0.316 µM, first compound 0.1 µM
[15] = second compound 0.316 µM, first compound 0.316 µM
[16] = second compound 0.316 µM, first compound 1 µM
[17] = second compound 0.316 µM, first compound 3.16 µM
[18] = second compound 0.316 µM, first compound 10 µM
[19] = second compound 1 µM, first compound 0.0316 µM
[20] = second compound 1 µM, first compound 0.1 µM
[21] = second compound 1 µM, first compound 0.316 µM
[22] = second compound 1 µM, first compound 1 µM
[23] = second compound 1 µM, first compound 3.16 µM
[24] = second compound 1 µM, first compound 10 µM
[25] = second compound 3.16 µM, first compound 0.0316 µM
[26] = second compound 3.16 µM, first compound 0.1 µM
[27] = second compound 3.16 µM, first compound 0.316 µM
[28] = second compound 3.16 µM, first compound 1 µM
[29] = second compound 3.16 µM, first compound 3.16 µM
[30] = second compound 3.16 µM, first compound 10 µM
[31] = second compound 10 µM, first compound 0.0316 µM
[32] = second compound 10 µM, first compound 0.1 µM
[33] = second compound 10 µM, first compound 0.316 µM
[34] = second compound 10 µM, first compound 1 µM
[35] = second compound 10 µM, first compound 3.16 µM
[36] = second compound 10 µM, first compound 10 µM
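Also: compound exposure lasted seven days before the viability readout.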
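For viability, T/C in this document: 100% = DMSO vehicle control wells.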

C=C(F)C(=O)N1CCN(c2nc(OCC3CCCN3C)nc3c2CCN(c2cccc4cccc(Cl)c24)C3)CC1CC#N (stereo not drawn) + CN1CCN(c2cc(C(=O)Nc3cc4cc(-c5cnn(C)c5)ccc4cn3)ccn2)CC1
IC50 (second compound 0.0316 µM): 4620 nM
IC50 (second compound 0.1 µM): 2700 nM
IC50 (second compound 0.316 µM): < 31.6 nM
IC50 (second compound 1 µM): < 31.6 nM
IC50 (second compound 3.16 µM): < 31.6 nM
IC50 (second compound 10 µM): < 31.6 nM
viability, T/C [1]: 87.9%
viability, T/C [2]: 86%
viability, T/C [3]: 86%
viability, T/C [4]: 88.7%
viability, T/C [5]: 73.9%
viability, T/C [6]: 1.28%
viability, T/C [7]: 85.8%
viability, T/C [8]: 72.8%
viability, T/C [9]: 90.9%
viability, T/C [10]: 79.5%
viability, T/C [11]: 45.3%
viability, T/C [12]: 1%
viability, T/C [13]: 28.3%
viability, T/C [14]: 36.7%
viability, T/C [15]: 31.8%
viability, T/C [16]: 37.5%
viability, T/C [17]: 13.6%
viability, T/C [18]: 0.93%
viability, T/C [19]: 0.49%
viability, T/C [20]: 0.17%
viability, T/C [21]: 0.3%
viability, T/C [22]: 1.49%
viability, T/C [23]: 0.88%
viability, T/C [24]: 0.75%
viability, T/C [25]: 1.35%
viability, T/C [26]: 0.14%
viability, T/C [27]: 2.05%
viability, T/C [28]: 0.84%
viability, T/C [29]: 1.24%
viability, T/C [30]: 0.11%
viability, T/C [31]: 0.66%
viability, T/C [32]: 1.65%
viability, T/C [33]: 0.21%
viability, T/C [34]: 0.22%
viability, T/C [35]: 0.2%
viability, T/C [36]: 0.65%

C#Cc1c(F)ccc2cc(O)cc(-c3ncc4c(N5CC6CCC(C5)N6)nc(OCC56CCCN5CC(F)C6)nc4c3F)c12 (stereo not drawn) + CNC(=O)c1ccc(Nc2nc(OC3CCCC3)c3c(-c4ccc5nc(C)oc5c4)c[nH]c3n2)c(OC)c1
IC50 (second compound 0.0316 µM): > 10000 nM
IC50 (second compound 0.1 µM): < 31.6 nM
IC50 (second compound 0.316 µM): < 31.6 nM
IC50 (second compound 1 µM): < 31.6 nM
IC50 (second compound 3.16 µM): < 31.6 nM
IC50 (second compound 10 µM): < 31.6 nM
viability, T/C [1]: 73.2%
viability, T/C [2]: 65%
viability, T/C [3]: 72.9%
viability, T/C [4]: 79.1%
viability, T/C [5]: 71.3%
viability, T/C [6]: 62%
viability, T/C [7]: 41.2%
viability, T/C [8]: 39%
viability, T/C [9]: 38.3%
viability, T/C [10]: 32.4%
viability, T/C [11]: 32.2%
viability, T/C [12]: 36%
viability, T/C [13]: 41%
viability, T/C [14]: 33.1%
viability, T/C [15]: 39%
viability, T/C [16]: 37.1%
viability, T/C [17]: 33.4%
viability, T/C [18]: 28.4%
viability, T/C [19]: 38.8%
viability, T/C [20]: 33%
viability, T/C [21]: 25.8%
viability, T/C [22]: 29.1%
viability, T/C [23]: 33.1%
viability, T/C [24]: 29%
viability, T/C [25]: 31.9%
viability, T/C [26]: 27.4%
viability, T/C [27]: 28.3%
viability, T/C [28]: 31.4%
viability, T/C [29]: 28%
viability, T/C [30]: 23.2%
viability, T/C [31]: 32.7%
viability, T/C [32]: 27.1%
viability, T/C [33]: 28%
viability, T/C [34]: 27.1%
viability, T/C [35]: 27.4%
viability, T/C [36]: 27.1%

C=CC(=O)N1CCN(c2nc(=O)n(-c3c(C)ccnc3C(C)C)c3nc(-c4c(O)cccc4F)c(F)cc23)C(C)C1 (stereo not drawn) + CNC(=O)c1ccc(Nc2nc(OC3CCCC3)c3c(-c4ccc5nc(C)oc5c4)c[nH]c3n2)c(OC)c1
IC50 (second compound 0.0316 µM): > 10000 nM
IC50 (second compound 0.1 µM): < 31.6 nM
IC50 (second compound 0.316 µM): < 31.6 nM
IC50 (second compound 1 µM): < 31.6 nM
IC50 (second compound 3.16 µM): < 31.6 nM
IC50 (second compound 10 µM): < 31.6 nM
viability, T/C [1]: 74.3%
viability, T/C [2]: 80%
viability, T/C [3]: 76.1%
viability, T/C [4]: 76.5%
viability, T/C [5]: 76.5%
viability, T/C [6]: 71.3%
viability, T/C [7]: 34.9%
viability, T/C [8]: 46.9%
viability, T/C [9]: 42.7%
viability, T/C [10]: 39.2%
viability, T/C [11]: 36.6%
viability, T/C [12]: 38.3%
viability, T/C [13]: 43.6%
viability, T/C [14]: 33%
viability, T/C [15]: 41.9%
viability, T/C [16]: 41.6%
viability, T/C [17]: 37%
viability, T/C [18]: 38.5%
viability, T/C [19]: 34.6%
viability, T/C [20]: 33.1%
viability, T/C [21]: 45%
viability, T/C [22]: 34.5%
viability, T/C [23]: 32.6%
viability, T/C [24]: 28.4%
viability, T/C [25]: 31.1%
viability, T/C [26]: 34.5%
viability, T/C [27]: 34.9%
viability, T/C [28]: 28.1%
viability, T/C [29]: 29%
viability, T/C [30]: 27.7%
viability, T/C [31]: 27.8%
viability, T/C [32]: 33.1%
viability, T/C [33]: 29.2%
viability, T/C [34]: 28.2%
viability, T/C [35]: 40%
viability, T/C [36]: 18.4%

COc1ccc([C@@H](O)c2cc(-c3ncnc4cc(N5CCOCC5)ccc34)c(F)cc2Cl)nn1 + CNC(=O)c1ccc(Nc2nc(OC3CCCC3)c3c(-c4ccc5nc(C)oc5c4)c[nH]c3n2)c(OC)c1
IC50 (second compound 0.0316 µM): 3420 nM
IC50 (second compound 0.1 µM): < 31.6 nM
IC50 (second compound 0.316 µM): < 31.6 nM
IC50 (second compound 1 µM): < 31.6 nM
IC50 (second compound 3.16 µM): < 31.6 nM
IC50 (second compound 10 µM): < 31.6 nM
viability, T/C [1]: 79.2%
viability, T/C [2]: 79.9%
viability, T/C [3]: 68%
viability, T/C [4]: 60.6%
viability, T/C [5]: 58.7%
viability, T/C [6]: 20.4%
viability, T/C [7]: 35.6%
viability, T/C [8]: 30.8%
viability, T/C [9]: 32.7%
viability, T/C [10]: 29.7%
viability, T/C [11]: 24%
viability, T/C [12]: 12.7%
viability, T/C [13]: 45.2%
viability, T/C [14]: 38%
viability, T/C [15]: 29%
viability, T/C [16]: 21.6%
viability, T/C [17]: 15.1%
viability, T/C [18]: 7.43%
viability, T/C [19]: 34.8%
viability, T/C [20]: 35%
viability, T/C [21]: 32.1%
viability, T/C [22]: 25.9%
viability, T/C [23]: 14.9%
viability, T/C [24]: 6.1%
viability, T/C [25]: 34.7%
viability, T/C [26]: 32.3%
viability, T/C [27]: 27.8%
viability, T/C [28]: 19.3%
viability, T/C [29]: 15.7%
viability, T/C [30]: 4.62%
viability, T/C [31]: 32.8%
viability, T/C [32]: 33.7%
viability, T/C [33]: 23.4%
viability, T/C [34]: 17.9%
viability, T/C [35]: 14.2%
viability, T/C [36]: 4.23%
